According to PubChem BioAssay AID449740 (Southern Research Specialized Biocontainment Screening …, 2010):
Activity calls are given as the source filed them. How the calls were made is not given here.

Assays:
[1] = polymyxin IC50 shift, round 3, mechanism study, late-stage follow-up (AID 449740); details: Salmonella Typhi WT vs phoP-, polymyxin IC50 shift, OD600 24 h, at 150 µM, stronger effect = higher value
[2] = tested on: Salmonella Typhi WT vs phoP-, polymyxin IC50 shift, OD600 24 h; assay: as above
[3] = measured here: phoP- strain shift
[4] = measured here: wild-type strain shift

SMILES | polymyxin IC50 shift difference WT minus phoP- [1] | polymyxin IC50 shift [1, 3] | polymyxin IC50 shift [1, 4] | IC50 [2]
O=C(Nc1ccc(Cl)cc1)N1CCCN(Cc2ccc(Br)cc2)C1 | -3.85 (inactive) | 0.497 | -3.36 | –
O=C(Nc1ccc(Cl)cc1)N1CCCN(Cc2ccccc2Br)C1 | -0.534 (inactive) | 6.73 | 6.2 | –
O=C(Nc1ccc(I)cc1)N1CCCN(Cc2ccccc2F)C1 | -9.38 (inactive) | 5.34 | -4.04 | –
CCn1cc(C(=O)O)c(=O)c2cc(F)c(N3CCN(C(=S)Nc4ccccc4C)CC3)cc21 | – | -2.44 | 4.87 | 19 µM
S=C(NCCc1ccc(Cl)cc1)Nc1ccncc1 | -1.02 (inactive) | 6.57 | 5.55 | –
CCn1cc(C(=O)O)c(=O)c2cc(F)c(N3CCN(C(=S)Nc4ccccc4OC)CC3)cc21 | – | -0.353 | 4.08 | 19 µM
